Source: patent US20260263628A1, “AN ORAL LIQUID COMPOSITION OF VINORELBINE” (INSTITUT GUSTAVE ROUSSY, priority 2022, published 2026)
Where a name gives a salt, the structure may show the parent alone. Read-outs that look alike come from different tables or passages of the source.

Experiments:
[1] = system: EpiOral; format: cell-based; conditions: vinorelbine 20 mg/mL
Procedure: EpiOral were also used for immunohistology analysis as follow: 3 untreated tissues (negative control, NC), 3 tissues in contact with SBE-β-CD, 3 tissues in contact with vinorelbine at 20 mg/mL concentration, 3 tissues in contact with vinorelbine complexed with SBE-β-CD and 3 tissues in contact with 1% Triton X-100 (positive control, PC). Tissues samples were fixed with 4% PFA and embedded in paraffin. Sections (3 μm thick) were deparaffinized and were stained with Hematoxylin and Eosin (H&E). For immunofluorescence, slides were incubated overnight at 4° C. with primary antibodies diluted in 0.02% Triton X-100-PBS. Primary antibodies were as follows: rabbit anti-Ki67 (ab16667; 1/75; Abcam), mouse anti-E-Cadherin (ab1416; 1/100; Abcam), rabbit anti-Claudin 4 (ab210796; 1/200; Abcam), mouse anti-Cytokeratin 10 (ab9026; 1/100; Abcam), rabbit anti-Cytokeratin 13 (ab97327; 1/50; Abcam) and mouse anti-Cytokeratin 14 (ab7800; 1/50; Abcam). For immunofluorescence detection, secondary antibody Alexa Fluor™ plus 488 goat anti-mouse (1:200; Invitrogen A11029), Alexa Fluor™ plus 488 donkey anti-rabbit (1:200; Invitrogen A21206), Alexa Fluor™ plus 594 goat anti-mouse (1:200; Invitrogen A32742) and Alexa Fluor™ plus 594 goat anti-rabbit (1:200; Invitrogen A32740) were used. […]

[2] = cited from earlier work
[3] = Isothermal titration calorimetry of CD/vinorelbine systems (titration and competition with SGM); format: physicochemical; conditions: 25° C.; for Binding constant / ΔbH° (inclusion enthalpy): vinorelbine-CD, phosphate buffer pH 7.0
Procedure: In the first instance, 12 CDs and CD derivatives supplied by Captisol® (Kansas, USA), SIGMA® (St Louis, Missouri, USA) and MSD® (New Jersey, USA) and authorized by the FDA or the European Medicines Agency (EMA) were tested (U.S Food and Drug Administration C for DE and. Food Additive Status List. FDA 2022. U.S Food and Drug Administration C for DE and. Select Committee on GRAS Substances 2022. Committee for Human Medicinal Products. Cyclodextrins used as excipients. EMA 2017:16). These were alpha-CD, beta-[…] (methyl-beta-CD, low substitution degree), RAMEB (methyl-beta-CD, higher substitution degree), DIMEB (di-O-methyl-beta-[…] (tri-O-methyl-beta-CD), HP-beta-CD (Hydroxypropyl-beta-CD), SBE-beta-CD (Sulfobutylether-beta-CD), gamma-CD, HP-gamma-CD (Hydroxypropyl-gamma-CD), SBE-gamma-CD (Sulfobutylether-gamma-CD), and sugammadex (SGM). Vinorelbine ditartrate and 50 mM CD solutions were prepared in phosphate buffer pH 7.0. […] To confirm the validity of the chosen stoichiometric model and to increase the accuracy of the thermodynamic parameters, each system was also subjected to a competition experiment with SGM: a solution of 0.5 mM vinorelbine and 10 mM CD titrated against a mixture containing 5 mM SGM and 10 mM CD. […] For all CDs the measurements were performed at 25° C., and the stirring speed was set at 1000 rpm. The resulting heat flux was recorded as a function of time. Prior to data analysis, blank titrations were performed under the same experimental conditions by injecting individual species into buffer, and/or buffer into species and buffer into buffer to determine the heat of dilution. […] The peak area after each injection was obtained by integration of the resulting signal and was expressed as the heat effect per injection. The binding constant (KB), inclusion enthalpy (ΔbH°), and heat capacity (ΔbCp®) were determined using a program developed by Bertaut and Landy involving a global analysis of all binding isotherms obtained for a given system (Bertaut et al. Beilstein J Org Chem 2014:12). A set of thermodynamic parameters was employed for simultaneous nonlinear regression analyses of titration and competition experiments.

[4] = Simulated complexation of vinorelbine in CD using the constants of Table 2; conditions: for CD concentration needed to obtain 95% of complexation: vinorelbine solution at 20 mg/mL (25.7 mmol/L)
Procedure: To obtain 95% of complexation for a solution at 20 mg/mL (ie 25.7 mmol/L), about 62 mmol/L of SGM or about 71 mmol/L of SBE-beta-CD is needed.
Using the constant values of Table 2, we simulated the complexation of vinorelbine in CD depending on the CD concentration and the final concentration of the vinorelbine solution. To achieve a concentration of 10 mg/mL, approximately 49 mmol/L sugammadex or 58 mmol/L SBE-beta-CD is required to reach 95% of complexation. For 18 mg/mL, approximately 59 mmol/L sugammadex or 68 mmol/L SBE-beta-CD is required to obtain the same complexation rate. […] This indicates a real and strong complexation between vinorelbine and cyclodextrin.

[5] = Haze / precipitate on mixing CD with vinorelbine (2D NMR sample preparation); format: physicochemical
Procedure: In order to confirm the type of existing interaction (inclusion complex, type of binding) between CD and vinorelbine, a two-dimensional proton NMR was performed on PA (Spitzer et al, J Heterocycl Chem 1995; 32:1255-9), CDs (Schneider et al, Chem Rev 1998; 98:1755-86) and complexes (Vogt et al, Mol Pharm 2012; 9:3357-74; Péan et al, J Chim Phys Phys-Chim Biol 1999; 96:1486-93). Vinorelbine 10 mM stock solution (SS) was prepared by dissolving 21.58 mg of vinorelbine tartrate in 2 mL of deuterated water. CD stock solutions were prepared by dissolving: 21.78 mg SGM in 1 mL heavy water (SS2), 9.73 mg alpha-CD in ImL heavy water (SS3), 21.63 mg SBE-beta-CD in 1 mL heavy water (SS4), and 20.72 mg SBE-gamma-CD in 1 mL heavy water (SS5). These stock solutions were used for the preparation of 10 samples containing vinorelbine, CDs or a mixture of CDs and vinorelbine in deuterated water as shown in Table 1.
A range of vinorelbine-SGM mixtures was performed from 1.5 mmol/L to 5 mmol/L. The haze appears from the mixture of concentration 2.5 mmol/L (sample 10).

| Molecule | Heat variation / interaction with vinorelbine in titration experiments [3] | Binding constant [3] | ΔbH° (inclusion enthalpy) [3] | CD concentration required to reach 95% of complexation ([4]; vinorelbine 10 mg/mL) | CD concentration required to reach 95% of complexation ([4]; vinorelbine 18 mg/mL) | CD concentration needed to obtain 95% of complexation [4] | Haze / precipitate when mixed with vinorelbine [5] | Concentration of vinorelbine-CD mixture from which haze appears ([5]; range 1.5 to 5 mmol/L, deuterated water) | Cytotoxicity / TUNEL marking [1] | E-cadherin marking (tight junctions) ([1]; Triton X-100 1%) | Solubility ([2]; aprotic solvents) | Solubility ([2]; methanol) | Solubility ([2]; water) |
| --- | --- | --- | --- | --- | --- | --- | --- | --- | --- | --- | --- | --- | --- |
| CCC1=C[C@@H]2CN(C1)Cc1c([nH]c3ccccc13)[C@@](C(=O)OC)(c1cc3c(cc1OC)N(C)[C@H]1[C@@](O)(C(=O)OC)[C@H](OC(C)=O)[C@]4(CC)C=CCN5CC[C@]31[C@@H]54)C2 [vinorelbine, vinorelbine ditartrate salt hydrate] |  |  |  |  |  |  |  |  | causes cell mortality and destroys tight tissue junctions | loss of E-cadherin marking | insoluble | partially soluble | totally soluble |
| sulfobutylether-beta-cyclodextrin [SBE-beta-CD] | an interaction is observed | 412 L/mol | +2305 cal/mol | ~58 mmol/L | ~68 mmol/L | about 71 mmol/L | does not produce any precipitate |  |  |  |  |  |  |
| OC[C@H]1O[C@@H]2O[C@H]3[C@H](O)[C@@H](O)[C@@H](O[C@H]4[C@H](O)[C@@H](O)[C@@H](O[C@H]5[C@H](O)[C@@H](O)[C@@H](O[C@H]6[C@H](O)[C@@H](O)[C@@H](O[C@H]7[C@H](O)[C@@H](O)[C@@H](O[C@H]1[C@H](O)[C@H]2O)O[C@@H]7CO)O[C@@H]6CO)O[C@@H]5CO)O[C@@H]4CO)O[C@@H]3CO [Alpha-CD, alpha-cyclodextrin] | small heat variation | 106 L/mol | -1.185 kcal/mol |  |  |  |  |  |  |  |  |  |  |

Second part, led by results:

| Heat variation / interaction with vinorelbine in titration experiments [3] | Binding constant [3] | ΔbH° (inclusion enthalpy) [3] | CD concentration required to reach 95% of complexation ([4]; vinorelbine 10 mg/mL) | CD concentration required to reach 95% of complexation ([4]; vinorelbine 18 mg/mL) | CD concentration needed to obtain 95% of complexation [4] | Haze / precipitate when mixed with vinorelbine [5] | Concentration of vinorelbine-CD mixture from which haze appears ([5]; range 1.5 to 5 mmol/L, deuterated water) | Molecule | Cytotoxicity / TUNEL marking [1] | E-cadherin marking (tight junctions) ([1]; Triton X-100 1%) | Solubility ([2]; aprotic solvents) | Solubility ([2]; methanol) | Solubility ([2]; water) |
| --- | --- | --- | --- | --- | --- | --- | --- | --- | --- | --- | --- | --- | --- |
| an interaction is observed | 121 L/mol | +514 cal/mol |  |  |  |  |  | Sulfobutylether-gamma-CD [SBE-gamma-CD] |  |  |  |  |  |
| an interaction is observed | 511 L/mol | -3.177 kcal/mol | approximately 49 mmol/L | approximately 59 mmol/L | about 62 mmol/L | a haze appeared | ≥ 2500 µM | O=C(O)CCSC[C@H]1O[C@@H]2O[C@H]3[C@H](O)[C@@H](O)[C@@H](O[C@H]4[C@H](O)[C@@H](O)[C@@H](O[C@H]5[C@H](O)[C@@H](O)[C@@H](O[C@H]6[C@H](O)[C@@H](O)[C@@H](O[C@H]7[C@H](O)[C@@H](O)[C@@H](O[C@H]8[C@H](O)[C@@H](O)[C@@H](O[C@H]9[C@H](O)[C@@H](O)[C@@H](O[C@H]1[C@H](O)[C@H]2O)O[C@@H]9CSCCC(=O)O)O[C@@H]8CSCCC(=O)O)O[C@@H]7CSCCC(=O)O)O[C@@H]6CSCCC(=O)O)O[C@@H]5CSCCC(=O)O)O[C@@H]4CSCCC(=O)O)O[C@@H]3CSCCC(=O)O [SGM, sugammadex] |  |  |  |  |  |
